Where “and” joins values, the source holds several entries; their conditions need not be identical. Equal entries are not always repeated. Toxic doses and inconclusive results are not listed. How the source made its calls: active means survival T/C of 150% or more; inactive means T/C below 125% in these data.
Test system: P388 leukemia ip, CD2F1 mice, survival T/C
Assay: NCI In Vivo Anticancer Drug Screen. Data for tumor model P388 Leukemia (intraperitoneal) in CD2F1 (CDF1) mice
Settings: endpoint: median survival time, higher = longer survival
Procedure, shortened: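 Mice carrying the transplanted tumor received test compound or vehicle. Survival was recorded in each group, and the value is the treated-group measurement divided by that of the vehicle-treated control group.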

[1] = dose: 100.0 mg/kg/injection, schedule: Q01DX009 (ip), vehicle: saline with Tween-80
[2] = dose: 60.0 mg/kg/injection, schedule: Q01DX005 (ip), vehicle: Klucel + Tween-80

Measured: T/C

C[N+](C)(C)CCBr
inactive: dose: 3.12 mg/kg/injection, schedule: Q01DX009 (ip), vehicle: saline 100 % of control | dose: 6.25 mg/kg/injection, schedule: Q01DX009 (ip), vehicle: saline 104 % of control | dose: 12.5 mg/kg/injection, schedule: Q01DX009 (ip), vehicle: saline 101 % of control | dose: 12.5 mg/kg/injection, schedule: Q04DX003 (ip), vehicle: saline 105 % of control | dose: 25.0 mg/kg/injection, schedule: Q01DX009 (ip), vehicle: saline 101 % of control | dose: 25.0 mg/kg/injection, schedule: Q04DX003 (ip), vehicle: saline 100 % of control

NC(=O)NN=C(C(F)(F)F)C(F)(F)F
inactive: dose: 50.0 mg/kg/injection, schedule: Q01DX009 (ip), vehicle: saline with Tween-80 110 % of control | [1] 101 % of control

Cc1ncc(C(O)CCC2OCCO2)n1Cc1ccccc1 (stereo unspecified)
inactive: dose: 50.0 mg/kg/injection, schedule: Q01DX009 (ip), vehicle: Klucel (hydroxypropylcellulose) (HPC) 96 % of control | dose: 100.0 mg/kg/injection, schedule: Q01DX009 (ip), vehicle: Klucel (hydroxypropylcellulose) (HPC) 98 % of control | dose: 200.0 mg/kg/injection, schedule: Q01DX009 (ip), vehicle: Klucel (hydroxypropylcellulose) (HPC) 98 % of control

COc1ccc(N2C(=O)/C(=C/c3ccccc3)N=C2/C=C/c2ccc(Cl)cc2)cc1
inactive: dose: 15.0 mg/kg/injection, schedule: Q01DX005 (ip), vehicle: Klucel + Tween-80 93 % of control | dose: 30.0 mg/kg/injection, schedule: Q01DX005 (ip), vehicle: Klucel + Tween-80 95 % of control | [2] 107 % of control and 96 % of control

Nc1ccc(Nc2nc(Cl)nc(Nc3ccc(N)cc3)n2)cc1
inactive: dose: 50.0 mg/kg/injection, schedule: Q01DX005 (ip), vehicle: Klucel (hydroxypropylcellulose) (HPC) 98 % of control | dose: 100.0 mg/kg/injection, schedule: Q01DX005 (ip), vehicle: Klucel (hydroxypropylcellulose) (HPC) 90 % of control | dose: 200.0 mg/kg/injection, schedule: Q01DX005 (ip), vehicle: Klucel (hydroxypropylcellulose) (HPC) 90 % of control

CCCCCC(O)/C=C/[C@H]1C(O)CC2OC(CSCCC(=O)O)C[C@@H]21 (stereo partly specified)
inactive: dose: 100.0 mg/kg/injection, schedule: Q04DX002 (ip), vehicle: saline with Tween-80 103 % of control | dose: 200.0 mg/kg/injection, schedule: Q04DX002 (ip), vehicle: saline with Tween-80 96 % of control

CC(=O)C1=C(C)O/C(=C/c2cccc(Cl)c2)C1=O
inactive: dose: 12.5 mg/kg/injection, schedule: Q01DX005 (ip), vehicle: saline with Tween-80 107 % of control | dose: 25.0 mg/kg/injection, schedule: Q01DX005 (ip), vehicle: saline with Tween-80 118 % of control | dose: 50.0 mg/kg/injection, schedule: Q01DX005 (ip), vehicle: saline with Tween-80 120 % of control and 121 % of control | dose: 100.0 mg/kg/injection, schedule: Q01DX005 (ip), vehicle: saline with Tween-80 118 % of control | dose: 200.0 mg/kg/injection, schedule: Q01DX005 (ip), vehicle: saline with Tween-80 119 % of control

CC(=O)Nc1ccc(C(=O)C=O)cc1
inactive: [1] 119 % of control

CC(=O)N(O)CC(=O)OCc1ccccc1
inactive: dose: 12.5 mg/kg/injection, schedule: Q01DX009 (ip), vehicle: other 96 % of control | dose: 25.0 mg/kg/injection, schedule: Q01DX009 (ip), vehicle: other 104 % of control | dose: 50.0 mg/kg/injection, schedule: Q01DX009 (ip), vehicle: other 102 % of control | dose: 100.0 mg/kg/injection, schedule: Q01DX009 (ip), vehicle: other 111 % of control | dose: 200.0 mg/kg/injection, schedule: Q01DX009 (ip), vehicle: other 100 % of control

Nc1cc(S(=O)(=O)c2ccc(O)c(N)c2)ccc1O
inactive: dose: 100.0 mg/kg/injection, schedule: Q01DX009 (ip), vehicle: saline 111 % of control and 92 % of control | dose: 200.0 mg/kg/injection, schedule: Q01DX009 (ip), vehicle: saline 102 % of control and 104 % of control | dose: 400.0 mg/kg/injection, schedule: Q01DX009 (ip), vehicle: saline 100 % of control and 95 % of control

CCN(CC)c1ccc(N=Nc2ccc(Br)cn2)c(O)c1
inactive: [2] 104 % of control | dose: 120.0 mg/kg/injection, schedule: Q01DX005 (ip), vehicle: Klucel + Tween-80 95 % of control | dose: 240.0 mg/kg/injection, schedule: Q01DX005 (ip), vehicle: Klucel + Tween-80 92 % of control

COc1cccc(OC)c1OC(=O)Nc1ccccc1F
inactive: dose: 60.0 mg/kg/injection, schedule: Q01DX005 (ip), vehicle: saline with Tween-80 102 % of control | dose: 120.0 mg/kg/injection, schedule: Q01DX005 (ip), vehicle: saline with Tween-80 105 % of control | dose: 240.0 mg/kg/injection, schedule: Q01DX005 (ip), vehicle: saline with Tween-80 102 % of control

O=C(C1=Cc2ccccc2OC1)N1CCN(c2ccccc2Cl)CC1
inactive: dose: 100.0 mg/kg/injection, schedule: Q04DX003 (ip), vehicle: Klucel (hydroxypropylcellulose) (HPC) 106 % of control | dose: 200.0 mg/kg/injection, schedule: Q04DX003 (ip), vehicle: Klucel (hydroxypropylcellulose) (HPC) 101 % of control | dose: 400.0 mg/kg/injection, schedule: Q04DX003 (ip), vehicle: Klucel (hydroxypropylcellulose) (HPC) 88 % of control

C=C1C(=O)C23C(O)C1CCC2C12COC3(O)C(O)C1C(C)(C)CCC2OC(C)=O (stereo unspecified)
inactive: dose: 10.0 mg/kg/injection, schedule: Q01DX009 (ip), vehicle: saline with Tween-80 117 % of control | dose: 20.0 mg/kg/injection, schedule: Q01DX009 (ip), vehicle: saline with Tween-80 117 % of control | dose: 25.0 mg/kg/injection, schedule: Q01DX009 (ip), vehicle: saline with Tween-80 110 % of control

Cc1ccc(COc2ccc(Cl)cc2Cn2ccnc2)cc1
inactive: dose: 25.0 mg/kg/injection, schedule: Q04DX002 (ip), vehicle: saline 104 % of control | dose: 50.0 mg/kg/injection, schedule: Q04DX002 (ip), vehicle: saline 106 % of control | dose: 100.0 mg/kg/injection, schedule: Q04DX002 (ip), vehicle: saline 106 % of control and 116 % of control

Cc1cc(C)c2c(c1N)C(=O)CCO2
inactive: dose: 7.5 mg/kg/injection, schedule: Q01DX005 (ip), vehicle: saline with Tween-80 96 % of control | dose: 15.0 mg/kg/injection, schedule: Q01DX005 (ip), vehicle: saline with Tween-80 100 % of control | dose: 30.0 mg/kg/injection, schedule: Q01DX005 (ip), vehicle: saline with Tween-80 102 % of control

Cn1c[n+](C2OC(CO)C(O)C2O)c2nc(N)[nH]c(=O)c21 (stereo unspecified)
inactive: dose: 50.0 mg/kg/injection, schedule: Q01DX005 (ip), vehicle: saline 119 % of control | dose: 100.0 mg/kg/injection, schedule: Q01DX005 (ip), vehicle: saline 105 % of control | dose: 200.0 mg/kg/injection, schedule: Q01DX005 (ip), vehicle: saline 115 % of control

O=C(O)c1ccccc1-c1c2cc(Br)c(=O)cc-2oc2[c]([Hg])c(O)c(Br)cc12
inactive: dose: 6.25 mg/kg/injection, schedule: Q01DX005 (ip), vehicle: saline 106 % of control | dose: 12.5 mg/kg/injection, schedule: Q01DX005 (ip), vehicle: saline 109 % of control | dose: 25.0 mg/kg/injection, schedule: Q01DX005 (ip), vehicle: saline 107 % of control

O=[N+]([O-])c1cc(S(=O)(=O)O)c2cccnc2c1O
inactive: dose: 100.0 mg/kg/injection, schedule: Q04DX003 (ip), vehicle: saline 86 % of control | dose: 200.0 mg/kg/injection, schedule: Q04DX003 (ip), vehicle: saline 89 % of control | dose: 400.0 mg/kg/injection, schedule: Q04DX003 (ip), vehicle: saline 88 % of control

S=C(NCc1ccccc1)N1CCC(CCCC2CCN(C(=S)NCc3ccccc3)CC2)CC1
inactive: dose: 60.0 mg/kg/injection, schedule: Q01DX005 (ip), vehicle: Klucel (hydroxypropylcellulose) (HPC) 92 % of control | dose: 120.0 mg/kg/injection, schedule: Q01DX005 (ip), vehicle: Klucel (hydroxypropylcellulose) (HPC) 91 % of control | dose: 240.0 mg/kg/injection, schedule: Q01DX005 (ip), vehicle: Klucel (hydroxypropylcellulose) (HPC) 88 % of control

CC1CC(C)(C)N=C(CCC2CCCCCC2=O)O1 (stereo unspecified)
inactive: dose: 50.0 mg/kg/injection, schedule: Q04DX003 (ip), vehicle: saline with Tween-80 100 % of control | dose: 100.0 mg/kg/injection, schedule: Q04DX003 (ip), vehicle: saline with Tween-80 100 % of control | dose: 200.0 mg/kg/injection, schedule: Q04DX003 (ip), vehicle: saline with Tween-80 100 % of control

Reference: PubChem BioAssay AID330 (DTP/NCI, 2004)
